Source: patent publication US20030232986A1, “Inhibitors of caspases” (Vertex Pharmaceuticals Incorporated, priority 1998, published 2003)
pIC50, pKi: −log10 of the molar value. Where two headings read alike, the source gives them in different places. Where a SMILES comes first, the peptide text is derived from it. [ ]: non-standard residue; d: D form. The star is where a group is joined. 4Abz = Nc1ccc(C(=O)O)cc1; Bz = O=C(c1ccccc1)*

Legend:
[1] = test system: Human Peripheral Blood Mononuclear Cells (PBMC), mature IL-1β; assay: PBMC cell assay: IL-1β assay with human peripheral blood mononuclear cells; format: cell-based; settings: LPS-stimulated human PBMC, mature IL-1β in supernatant by ELISA
Text: IL-1β Assay with a Mixed Population of Human Peripheral Blood Mononuclear Cells (PBMC) or Enriched Adherent Mononuclear Cells
Processing of pre-IL-1β by ICE can be measured in cell culture using a variety of cell sources. Human PBMC obtained from healthy donors provides a mixed population of lymphocyte subtypes and mononuclear cells that produce a spectrum of interleukins and cytokines in response to many classes of physiological stimulators. Adherent mononuclear cells from PBMC provides an enriched source of normal monocytes for selective studies of cytokine production by activated cells.
An initial dilution series of test compound in DMSO or ethanol is prepared, with a subsequent dilution into RPMI-10% FBS media (containing 2 mM L-glutamine, 10 mM HEPES, 50 U and 50 ug/ml pen/strep) respectively to yield drugs at 4× the final test concentration containing 0.4% DMSO or 0.4% ethanol. The final concentration of DMSO is 0.1% for all drug dilutions. A concentration titration which brackets the apparent Ki for a test compound determined in an ICE inhibition assay is generally used for the primary compound screen.
Generally 5-6 compound dilutions are tested and the cellular component of the assay is performed in duplicate, with duplicate ELISA determinations on each cell culture supernatant.
Buffy coat cells isolated from one pint human blood (yielding 40-45 ml final volume plasma plus cells) are diluted with media to 80 ml and LeukoPREP separation tubes (Becton Dickinson) are each overlaid with 10 ml of cell suspension. After 15 min centrifugation at 1500-1800×g, the plasma/media layer is aspirated and then the mononuclear cell layer is collected with a Pasteur pipette and transferred to a 15 ml conical centrifuge tube (Corning). Media is added to bring the volume to 15 ml, gently mix the cells by inversion and centrifuge at 300×g for 15 min. The PBMC pellet is resuspended in a small volume of media, the cells are counted and adjusted to 6×10^6 cells/ml.
For the cellular assay, 1.0 ml of the cell suspension is added to each well of a 24-well flat bottom tissue culture plate (Corning), 0.5 ml test compound dilution and 0.5 ml LPS solution (Sigma #L-3012; 20 ng/ml solution prepared in complete RPMI media; final LPS concentration 5 ng/ml). The 0.5 ml additions of test compound and LPS are usually sufficient to mix the contents of the wells. Three control mixtures are run per experiment, with either LPS alone, solvent vehicle control, and/or additional media to adjust the final culture volume to 2.0 ml. The cell cultures are incubated for 16-18 hr at 37° C. in the presence of 5% CO2.
At the end of the incubation period, cells are harvested and transferred to 15 ml conical centrifuge tubes. After centrifugation for 10 min at 200×g, supernatants are harvested and transferred to 1.5 ml Eppendorf tubes. It may be noted that the cell pellet may be utilized for a biochemical evaluation of pre-IL-1β and/or mature IL-1β content in cytosol extracts by Western blotting or ELISA with pre-IL-1β specific antisera.
PBMC are isolated and prepared as described above. Media (1.0 ml) is first added to wells followed by 0.5 ml of the PBMC suspension. After a one hour incubation, plates are gently shaken and nonadherent cells aspirated from each well. Wells are then gently washed three times with 1.0 ml of media and final resuspended in 1.0 ml media. The enrichment for adherent cells generally yields 2.5-3.0×10^5 cells per well. The addition of test compounds, LPS, cell incubation conditions and processing of supernatants proceeds as described above.
Quantikine kits (R&D Systems) may be used for the measurement of mature IL-1β. Assays are performed according to the manufacturer's directions. Mature IL-1β levels of about 1-3 ng/ml in both PBMC and adherent mononuclear cell positive controls are observed. […]

[2] = test system: Human whole blood, IL-1β production; assay: Whole blood assay for IL-1β production; format: cell-based; settings: LPS-stimulated whole blood, IL-1β by ELISA
Summary of the method: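 LPS-stimulated (5.0 ng/ml final) human whole blood incubated with test compound in saline (or plasma/PBS-5% DMSO for hydrophobic compounds) at 30° C for 16-18 hr. Plasma IL-1β then measured by ELISA at 1:200 dilution, against no-LPS, no-inhibitor and vehicle controls.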

[3] = biological target: T1, Caspase-1 (Homo sapiens, UniProt P29466); assay: Caspase-1 enzyme inhibition (Ki); format: biochemical
T1 sequence (P29466 120-297 limits assumed): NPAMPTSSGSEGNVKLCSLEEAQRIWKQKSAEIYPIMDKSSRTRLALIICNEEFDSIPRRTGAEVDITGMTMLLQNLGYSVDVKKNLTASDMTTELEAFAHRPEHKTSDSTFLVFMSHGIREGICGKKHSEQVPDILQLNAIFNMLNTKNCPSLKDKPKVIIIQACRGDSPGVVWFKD
T1 sequence (P29466 317-404 limits assumed): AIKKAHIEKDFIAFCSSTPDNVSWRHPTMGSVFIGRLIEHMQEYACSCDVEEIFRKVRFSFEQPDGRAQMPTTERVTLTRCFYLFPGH
Summary of the method: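 Ki obtained by fitting rate versus inhibitor concentration to the Morrison tight-binding equation for competitive inhibitors, with pNA release read at 405 nm at 37 °C. Substrate Suc-YVAD-pNA (80 μM final) added after 15 min enzyme–inhibitor preincubation in Tris pH 7.5 buffer with DTT and CHAPS.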

[4] = substrate Suc-YVAD-pNA 80 μM, 37° C., pH 7.5

Row | Structure (SMILES) | pIC50 [1] | pIC50 [2] | pKi [3, 4] | pKi [3]
1 | CC(C)[C@H](NC(=O)c1cccc(C(=O)c2ccccc2)c1)C(=O)N1CCC[C@H]1C(=O)N[C@H](C=O)CC(=O)O [Example 5az] | 6.00 to 6.30 | > 5.60 | > 8.00 | 
2 | CC(C)[C@H](NC(=O)c1cc2ccccc2[nH]1)C(=O)N1CCC[C@H]1C(=O)N[C@H](C=O)CC(=O)O [Example 5b] | 6.00 to 6.30 | > 5.60 | > 8.00 | 
3 | CC(C)[C@H](NC(=O)c1ccc2c(c1)C(=O)c1ccccc1-2)C(=O)N1CCC[C@H]1C(=O)N[C@H](C=O)CC(=O)O [Example 5bb] | 6.00 to 6.30 | 5.12 to 5.60 | > 8.00 | 
4 | CC(C)[C@H](NC(=O)c1cccc2ccccc12)C(=O)N1CCC[C@H]1C(=O)N[C@H](C=O)CC(=O)O [Example 5d] | 6.00 to 6.30 | 5.12 to 5.60 | > 8.00 | 
5 | CC(C)[C@H](NC(=O)c1ccccc1)C(=O)N1CCC[C@H]1C(=O)N[C@H](C=O)CC(=O)O [Example 5e] (Bz-Val-Pro-Asp-aldehyde) | 6.00 to 6.30 | > 5.60 | 6.00 to 8.00 | 
6 | CC(C)[C@H](NC(=O)c1ccc(O)cc1)C(=O)N1CCC[C@H]1C(=O)N[C@H](C=O)CC(=O)O [Example 5f] | 5.70 to 6.00 | 5.12 to 5.60 | 6.00 to 8.00 | 
7 | CC(C)[C@H](NC(=O)c1cccc2c1-c1ccccc1C2)C(=O)N1CCC[C@H]1C(=O)N[C@H](C=O)CC(=O)O [Example 5i] | 5.70 to 6.00 | < 5.12 | > 8.00 | > 8.00
8 | CC(C)[C@H](NC(=O)c1cccc2c1Cc1ccccc1-2)C(=O)N1CCC[C@H]1C(=O)N[C@H](C=O)CC(=O)O [Example 5j] | < 5.70 | < 5.12 | > 8.00 | > 8.00
9 | CC(C)[C@H](NC(=O)c1ccccc1C(=O)c1ccc(F)cc1)C(=O)N1CCC[C@H]1C(=O)N[C@H](C=O)CC(=O)O [Example 5l] | > 6.30 | < 5.12 | 6.00 to 8.00 | 6.00 to 8.00
10 | COc1cc(C(=O)N[C@H](C(=O)N2CCC[C@H]2C(=O)N[C@H](C=O)CC(=O)O)C(C)C)cc(OC)c1O [Example 5n] | 6.00 to 6.30 | 5.12 to 5.60 | > 8.00 | > 8.00
11 | CC(C)[C@H](NC(=O)c1ccc2c(c1)OCO2)C(=O)N1CCC[C@H]1C(=O)N[C@H](C=O)CC(=O)O [Example 5r] | < 5.70 | < 5.12 | 6.00 to 8.00 | 6.00 to 8.00
12 | CC(C)[C@H](NC(=O)c1cnnc2ccccc12)C(=O)N1CCC[C@H]1C(=O)N[C@H](C=O)CC(=O)O [Example 5s] | 6.00 to 6.30 | < 5.12 | 6.00 to 8.00 | 6.00 to 8.00
13 | CC(C)[C@H](NC(=O)c1ccccc1C(=O)c1ccccc1)C(=O)N1CCC[C@H]1C(=O)N[C@H](C=O)CC(=O)O [Example 5u] | 5.70 to 6.00 | > 5.60 | 6.00 to 8.00 | 6.00 to 8.00
14 | CC(C)[C@H](NC(=O)c1cnc2ccccc2n1)C(=O)N1CCC[C@H]1C(=O)N[C@H](C=O)CC(=O)O [Example 5w] | 6.00 to 6.30 | > 5.60 | 6.00 to 8.00 | 6.00 to 8.00
15 | CC(C)[C@H](NC(=O)c1ccccc1C(=O)N[C@@H](C)c1ccccc1)C(=O)N1CCC[C@H]1C(=O)N[C@H](C=O)CC(=O)O [Example 5x] | 6.00 to 6.30 | > 5.60 | > 8.00 | > 8.00
16 | CCCCCCOc1ccc(C(=O)N[C@H](C(=O)N2CCC[C@H]2C(=O)N[C@H](C=O)CC(=O)O)C(C)C)cc1 [Example 5y] | 6.00 to 6.30 | 5.12 to 5.60 | > 8.00 | > 8.00

Row | Structure (SMILES) | pIC50 [1] | pIC50 [2] | pKi [3, 4] | pKi [3]
17 | CCCCCCc1ccc(C(=O)N[C@H](C(=O)N2CCC[C@H]2C(=O)N[C@H](C=O)CC(=O)O)C(C)C)cc1 [Example 5z] | 6.00 to 6.30 | < 5.12 | > 8.00 | > 8.00
18 | C[C@H](NC(=O)c1cccc2ccccc12)C(=O)N1CCC[C@H]1C(=O)N[C@H](C=O)CC(=O)O [Example 7a] | < 5.70 | 5.12 to 5.60 | > 8.00 | 
19 | C[C@H](NC(=O)c1ccccc1)C(=O)N1CCC[C@H]1C(=O)N[C@H](C=O)CC(=O)O [Example 7b] (Bz-Ala-Pro-Asp-aldehyde) | 6.00 to 6.30 | > 5.60 | 6.00 to 8.00 | 
20 | CC(=O)Nc1ccc(C(=O)N[C@@H](C)C(=O)N2CCC[C@H]2C(=O)N[C@H](C=O)CC(=O)O)cc1 [Example 7e] (Ac-[4Abz]APD-aldehyde) | < 5.70 | < 5.12 | 6.00 to 8.00 | 
21 | C[C@H](NC(=O)c1ccc(N(C)C)c2ccccc12)C(=O)N1CCC[C@H]1C(=O)N[C@H](C=O)CC(=O)O [Example 7g] | > 6.30 | 5.12 to 5.60 | > 8.00 | 
22 | C[C@H](NC(=O)c1ccc(Cl)c(N)c1)C(=O)N1CCC[C@H]1C(=O)N[C@H](C=O)CC(=O)O [Example 7h] | 6.00 to 6.30 | > 5.60 | 6.00 to 8.00 | 
23 | COc1cc(C(=O)N[C@@H](C)C(=O)N2CCC[C@H]2C(=O)N[C@H](C=O)CC(=O)O)cc(OC)c1OC [Example 7k] | 6.00 to 6.30 | > 5.60 | 6.00 to 8.00 | 
24 | COc1cc(C(=O)N[C@@H](C)C(=O)N2CCC[C@H]2C(=O)N[C@H](C=O)CC(=O)O)ccc1N [Example 7l] | 6.00 to 6.30 | > 5.60 | 6.00 to 8.00 | 
25 | COc1ccc(C(=O)N[C@@H](C)C(=O)N2CCC[C@H]2C(=O)N[C@H](C=O)CC(=O)O)cc1F [Example 7m] | 6.00 to 6.30 | 5.12 to 5.60 | 6.00 to 8.00 | 
26 | C[C@H](NC(=O)c1cccc(N(C)C)c1)C(=O)N1CCC[C@H]1C(=O)N[C@H](C=O)CC(=O)O [Example 7n] | 6.00 to 6.30 | > 5.60 | 6.00 to 8.00 | 
27 | COc1cc(C(=O)N[C@@H](C)C(=O)N2CCC[C@H]2C(=O)N[C@H](C=O)CC(=O)O)cc(Cl)c1O [Example 7o] | > 6.30 | > 5.60 | > 8.00 | 
28 | COc1ccc(C(=O)N[C@@H](C)C(=O)N2CCC[C@H]2C(=O)N[C@H](C=O)CC(=O)O)cc1C [Example 7p] | < 5.70 | 5.12 to 5.60 | > 8.00 | 
29 | C[C@H](NC(=O)c1ccc2c(c1)OCO2)C(=O)N1CCC[C@H]1C(=O)N[C@H](C=O)CC(=O)O [Example 7q] | < 5.70 | > 5.60 | 6.00 to 8.00 | 
30 | C[C@H](NC(=O)c1ccc(N(C)C)cc1)C(=O)N1CCC[C@H]1C(=O)N[C@H](C=O)CC(=O)O [Example 7s] | 6.00 to 6.30 | 5.12 to 5.60 | 6.00 to 8.00 | 
31 | Cc1cc(C(=O)N[C@@H](C)C(=O)N2CCC[C@H]2C(=O)N[C@H](C=O)CC(=O)O)ccc1N [Example 7t] | < 5.70 | 5.12 to 5.60 | 6.00 to 8.00 | 
